Literature values, collected in PubChem BioAssay AID1259409 (Chemical Carcinogenesis Research Information System (CCRIS), 2018).

Tested on: rodent chemically induced tumor inhibition, incidence and multiplicity
Test: CCRIS tumor inhibitor studies

NCCCC(N)(C(=O)O)C(F)F (centres undefined)
tumour outcome (control, treated, inhibition, significance) (Carcinogen: N-ETHYL-N-NITROSOUREA, 759-73-9, Dose [Inhibitor]: 0, 500 MG/KG DIET FOR DURATION OF STUDY BEGINNING POST CARCINOGEN DOSE (STUDY DURATION: 35 WK), Route [Inhibitor]: ORAL, Species: MOUSE, Strain/Sex: PIM/MALE, Target Tissue: Type of Lesion: LYMPHATIC SYSTEM: LYMPHOMA, Dose [Carcinogen]: 50 MG/KG BW ONCE, Promoter: NONE USED): 21/40 (53%), 9/28 (32%), 40%, not significant
tumour outcome (control, treated, inhibition, significance) (Carcinogen: N-ETHYL-N-NITROSOUREA, 759-73-9, Dose [Inhibitor]: 0, 1000 MG/KG DIET FOR DURATION OF STUDY BEGINNING POST CARCINOGEN DOSE (STUDY DURATION: 35 WK), Route [Inhibitor]: ORAL, Species: MOUSE, Strain/Sex: PIM/MALE, Target Tissue: Type of Lesion: LYMPHATIC SYSTEM: LYMPHOMA, Dose [Carcinogen]: 50 MG/KG BW ONCE, Promoter: NONE USED): 21/40 (53%), 16/40 (40%), 26%, not significant
tumour outcome (control, treated, inhibition, significance) (Carcinogen: N-METHYL-N'-NITRO-N-NITROSOGUANIDINE, 70-25-7, Dose [Inhibitor]: 0, 0.5% IN DRINKING WATER ADMINISTERED CONCURRENTLY WITH CARCINOGEN FOR 35 WK (STUDY DURATION: 85 WK), Route [Inhibitor]: ORAL, Species: RAT, Strain/Sex: WISTAR/MALE, Target Tissue: Type of Lesion: DUODENUM: TUMOR, Dose [Carcinogen]: 2.5 MG IN DRINKING WATER FOR 35 WK, Promoter: NONE USED): 4/22 (18%), 9/25 (36%), -100%, not significant
tumour outcome (control, treated, inhibition, significance) (Carcinogen: N-METHYL-N'-NITRO-N-NITROSOGUANIDINE, 70-25-7, Dose [Inhibitor]: 0, 0.5% IN DRINKING WATER ADMINISTERED CONCURRENTLY WITH CARCINOGEN FOR 35 WK (STUDY DURATION: 85 WK), Route [Inhibitor]: ORAL, Species: RAT, Strain/Sex: WISTAR/MALE, Target Tissue: Type of Lesion: STOMACH: ADENOCARCINOMA, Dose [Carcinogen]: 2.5 MG IN DRINKING WATER FOR 35 WK, Promoter: NONE USED): 12/22 (55%), 3/25 (12%), 78%, p<0.005
tumour outcome (control, treated, inhibition, significance) (Carcinogen: N-METHYL-N'-NITRO-N-NITROSOGUANIDINE, 70-25-7, Dose [Inhibitor]: 0, 0.5% IN DRINKING WATER ADMINISTERED CONCURRENTLY WITH CARCINOGEN FOR 35 WK (STUDY DURATION: 85 WK), Route [Inhibitor]: ORAL, Species: RAT, Strain/Sex: WISTAR/MALE, Target Tissue: Type of Lesion: STOMACH: ADENOMA, Dose [Carcinogen]: 2.5 MG IN DRINKING WATER FOR 35 WK, Promoter: NONE USED): 5/22 (23%), 4/25 (16%), 30%, not significant
tumour outcome (control, treated, inhibition, significance) (Carcinogen: N-METHYL-N'-NITRO-N-NITROSOGUANIDINE, 70-25-7, Dose [Inhibitor]: 0, 0.5% IN DRINKING WATER ADMINISTERED CONCURRENTLY WITH CARCINOGEN FOR 35 WK (STUDY DURATION: 85 WK), Route [Inhibitor]: ORAL, Species: RAT, Strain/Sex: WISTAR/MALE, Target Tissue: Type of Lesion: STOMACH: SARCOMA, Dose [Carcinogen]: 2.5 MG IN DRINKING WATER FOR 35 WK, Promoter: NONE USED): 2/22 (9%), 0/25 (0%), 100%, not significant
tumour outcome (control, treated, inhibition, significance) (Carcinogen: N-METHYL-N'-NITRO-N-NITROSOGUANIDINE, 70-25-7, Dose [Inhibitor]: 0, 1% IN DRINKING WATER ADMINISTERED CONCURRENTLY WITH CARCINOGEN FOR 35 WK (STUDY DURATION: 85 WK), Route [Inhibitor]: ORAL, Species: RAT, Strain/Sex: WISTAR/MALE, Target Tissue: Type of Lesion: DUODENUM: TUMOR, Dose [Carcinogen]: 2.5 MG IN DRINKING WATER FOR 35 WK, Promoter: NONE USED): 4/22 (18%), 9/25 (36%), -100%, not significant
tumour outcome (control, treated, inhibition, significance) (Carcinogen: N-METHYL-N'-NITRO-N-NITROSOGUANIDINE, 70-25-7, Dose [Inhibitor]: 0, 1% IN DRINKING WATER ADMINISTERED CONCURRENTLY WITH CARCINOGEN FOR 35 WK (STUDY DURATION: 85 WK), Route [Inhibitor]: ORAL, Species: RAT, Strain/Sex: WISTAR/MALE, Target Tissue: Type of Lesion: STOMACH: ADENOCARCINOMA, Dose [Carcinogen]: 2.5 MG IN DRINKING WATER FOR 35 WK, Promoter: NONE USED): 12/22 (55%), 5/25 (20%), 64%, p<0.05
tumour outcome (control, treated, inhibition, significance) (Carcinogen: N-METHYL-N'-NITRO-N-NITROSOGUANIDINE, 70-25-7, Dose [Inhibitor]: 0, 1% IN DRINKING WATER ADMINISTERED CONCURRENTLY WITH CARCINOGEN FOR 35 WK (STUDY DURATION: 85 WK), Route [Inhibitor]: ORAL, Species: RAT, Strain/Sex: WISTAR/MALE, Target Tissue: Type of Lesion: STOMACH: ADENOMA, Dose [Carcinogen]: 2.5 MG IN DRINKING WATER FOR 35 WK, Promoter: NONE USED): 5/22 (23%), 3/25 (12%), 48%, not significant
tumour outcome (control, treated, inhibition, significance) (Carcinogen: N-METHYL-N'-NITRO-N-NITROSOGUANIDINE, 70-25-7, Dose [Inhibitor]: 0, 1% IN DRINKING WATER ADMINISTERED CONCURRENTLY WITH CARCINOGEN FOR 35 WK (STUDY DURATION: 85 WK), Route [Inhibitor]: ORAL, Species: RAT, Strain/Sex: WISTAR/MALE, Target Tissue: Type of Lesion: STOMACH: SARCOMA, Dose [Carcinogen]: 2.5 MG IN DRINKING WATER FOR 35 WK, Promoter: NONE USED): 2/22 (9%), 3/25 (12%), -33%, not significant
tumour outcome (control, treated, inhibition, significance) (Carcinogen: N-METHYL-N-BENZYLNITROSAMINE, 937-40-6, Dose [Inhibitor]: 0, 1% IN DEIONIZED WATER WITH ZINC-DEFICIENT DIET FOR 15 WK STARTING 1 HR POST CARCINOGEN TREATMENT (STUDY DURATION: 20, Route [Inhibitor]: ORAL, Species: RAT, Strain/Sex: SPRAGUE-DAWLEY/MALE, Target Tissue: Type of Lesion: ESOPHAGUS: TUMOR, Dose [Carcinogen]: 2 MG/KG BW ONCE ADMINISTERED AFTER 5 WK OF ZINC-DEFICIENT DIET TREATMENT): 89% (8/9), 10% (2/20), 89%, p<0.0001
tumour outcome (control, treated, inhibition, significance) (Carcinogen: N-METHYL-N-NITROSOUREA, 684-93-5, Dose [Inhibitor]: 0, 0.5 IN 2% NORMAL URINE INTO HETEROTOPICALLY TRANSPLANTED BLADDER 2/WK FOR 22 WK BEGINNING 1 WK POST CARCINOGEN (STUDY, Route [Inhibitor]: INJECTION, Species: RAT, Strain/Sex: F344/MALE, Target Tissue: Type of Lesion: BLADDER: TRANSITIONAL CELL CARCINOMA, Dose [Carcinogen]: 0.25 MG IN 0.9% SALINE 1/WK FOR 3 WK INTO BLADDER 4 WK AFTER HETEROTOPIC TRANSPLANT INTO GLUTEAL MUSCLE): 31/38 (82%), 5/37 (16%), 80%, p<0.001
tumour outcome (control, treated, inhibition, significance) (Carcinogen: N-METHYL-N-NITROSOUREA, 684-93-5, Dose [Inhibitor]: 0, 0.5 IN 2% NORMAL URINE INTO HETEROTOPICALLY TRANSPLANTED BLADDER 2/WK FOR 29 WK BEGINNING 1 WK POST CARCINOGEN (STUDY, Route [Inhibitor]: INJECTION, Species: RAT, Strain/Sex: F344/MALE, Target Tissue: Type of Lesion: BLADDER: TRANSITIONAL CELL CARCINOMA, Dose [Carcinogen]: 0.25 MG IN 0.9% SALINE ONCE INTO BLADDER 4 WK AFTER HETEROTOPIC TRANSPLANT INTO GLUTEAL MUSCLE): 15/35 (43%), 3/34 (9%), 79%, p<0.005
tumour outcome (control, treated, inhibition, significance) (Carcinogen: N-METHYL-N-NITROSOUREA, 684-93-5, Dose [Inhibitor]: 0.5 ML OF 2% AGENT IN 0.9% SALINE SOLUTION TWICE IN WK 1 THEN ONCE 2 HR POST CARCINOGEN DOSE THEN TWICE IN WEEK 2 (STUDY, Route [Inhibitor]: INTRAVESICAL, Species: RAT, Strain/Sex: F344/MALE, Target Tissue: Type of Lesion: BLADDER: CARCINOMA, Dose [Carcinogen]: 0.25 MG IN 0.5 ML OF 0.9% SALINE SOLUTION ONCE, Promoter: URINE): 25/36 (69%), 25/37 (68%), 1%, not calculated
